What all share (assay type): cell-based
For assay [1], the target named is T1, human prostanoid FP receptor (Homo sapiens, UniProt P43088).
T1 construct: expressed in transfected cells
The experiment in a line: FLIPR Ca2+ signaling antagonist assay, FP receptor stable cell line. Particulars: HEK-293 EBNA stable cell line; standard agonist 17-phenyl-PGF2α; NA = inactive (no antagonism or Kb 10,000 nM); PAg, Ag not defined. How it is done:
(§1) The above compounds were tested for PG antagonist activity as follows using human recombinant prostanoid receptor (DP1, EP1-4, FP, IP and TP) stable cell lines:
(§2) In order to measure the response of Gs and Gi coupled prostanoid receptors as a Ca^2+ signal, chimeric G protein cDNAs were used. Stable cell lines over-expressing human prostanoid DP1, EP1-4, FP, IP, and TP receptors were established as follows:
(§3) Briefly, human prostanoid DP1, EP2, and EP4 receptor cDNAs were co-transfected with chimeric Gqs cDNA containing a haemagglutanin (HA) epitope; human prostanoid EP3 receptors were co-transfected with chimeric Gqi-HA; human EP1, FP, IP, and TP receptor cDNAs were expressed with no exogenous G-proteins. Gqs and Gqi chimeric cDNAs (Molecular Devices, Sunnyvale, Calif., U.S.A.), as well as cDNAs of prostanoid receptors, were cloned into a pCEP4 vector with a hygromycin B selection marker. Transfection into HEK-293 EBNA (Epstein-Barr virus nuclear antigen) cells was achieved by the FuGENE 6 transfection Reagent (Roche Applied Science, Indianapolis, Ind., USA). Stable transfectants were selected according to hygromycin resistance. Because Gqs and Gqi contained an HA epitope, G-protein expression was detected by Western blotting analysis using anti-mouse HA monoclonal antibody and horseradish peroxidase (HRP)-conjugated secondary antibody, while functional expression of prostanoid receptors was detected by FLIPR screening (Matias et al., 2004). These stable cell lines were validated using previously published antagonists at 10 μM against serial dilutions of standard agonists by FLIPR functional assays for Ca^2+ Signaling (as described below).
(§4) Ca^2+ signaling studies were performed using a FLIPR TETRA system (Molecular Devices, Sunnyvale, Calif., USA) in the 384-format. This is a high-throughput instrument for cell-based assays to monitor Ca^2+ signaling associated with GPCRs and ion channels. Cells were seeded at a density of 5×10^4 cells/well in BioCoat poly-D-lysine coated, black wall, clear bottom 384-well plates (BD Biosciences, Franklin lakes, NJ, USA) and allowed to attach overnight in an incubator at 37° C. The cells were then washed twice with HBSS-HEPES buffer (Hanks' balanced salt solution without bicarbonate and phenol red, 20 mM HEPES, pH 7.4) using an ELx405 Select CW Microplate Washer (BioTek, Winooski, Vt., USA). After 60 min of dye-loading in the dark using the Ca^2+-sensitive dye Fluo-4AM (Invitrogen, Carlsbad, Calif., USA), at a final concentration of 2×10^−6M, the plates were washed 4 times with HBSS-HEPES buffer to remove excess dye and leaving 50 μl of buffer in each well. The plates were then placed in the FLIPR TETRA instrument and allowed to equilibrate at 37° C. AGN-211377 was added in a 25 μl volume to each well to give final concentrations of 0.1 μM, 0.3 μM, 1 μM, 3 μM, 10 μM, and 30 μM; or 0.067 μM, 0.1 μM, 0.2 μM, 0.3 μM, 0.67 μM, and 1 μM for cells over-expressing TP receptors. After 4.5 minutes, a 7-point serial dilution of the standard agonist for the corresponding receptor, in a 25 μl volume was injected at the final concentrations from 10^−11M to 10^−5M in 10-fold serial dilution increments for cells expressing human recombinant DP1, EP1, EP2, EP3, EP4, FP, and IP receptors. The dose range for the standard agonist for human recombinant TP receptors was from 10^−12 M to 10^−6 M. HBSS-HEPES buffer was used as the negative control for the standard agonists. Cells were excited with LED (light emitting diode) excitation at 470-495 nm and emission was measured through an emission filter at 515-575 nm. Assay plates were read for 3.5 minutes using the FLIPR^TETRA. The peak increase in fluorescence intensity was recorded for each well. On each plate, negative controls, dose response of positive controls, and co-treatments of antagonist-agonist for each dose were in triplicates.
(§5) Standard agonists were as follows: DP=BW 245C, EP1-EP4=PGE2, FP=17-phenyl-PGF2α, IP=Cicaprost, and TP=U-46619. […]

In assay [2] the target is T2, human prostanoid DP1 receptor (Homo sapiens, UniProt Q13258).
T2 construct: expressed in transfected cells
T2 sequence (Q13258 1-359): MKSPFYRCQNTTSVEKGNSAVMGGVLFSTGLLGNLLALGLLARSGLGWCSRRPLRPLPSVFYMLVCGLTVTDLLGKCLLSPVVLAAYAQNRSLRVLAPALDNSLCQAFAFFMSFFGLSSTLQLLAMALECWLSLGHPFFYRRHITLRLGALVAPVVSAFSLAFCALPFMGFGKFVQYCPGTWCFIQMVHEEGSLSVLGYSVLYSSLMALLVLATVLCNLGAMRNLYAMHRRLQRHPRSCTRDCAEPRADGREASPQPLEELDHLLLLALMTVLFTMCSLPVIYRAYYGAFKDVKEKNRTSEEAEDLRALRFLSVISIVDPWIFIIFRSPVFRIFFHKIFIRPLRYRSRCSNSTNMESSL
The experiment in a line: FLIPR Ca2+ signaling antagonist assay, DP1 receptor stable cell line. Particulars: HEK-293 EBNA stable cell line; standard agonist BW 245C; NA = inactive (no antagonism or Kb 10,000 nM); PAg, Ag not defined. How it is done: as §1, §2, §3, §4, §5

In assay [3] the target is T3, human prostanoid EP1 receptor (Homo sapiens, UniProt P34995).
T3 construct: expressed in transfected cells
T3 sequence (P34995 1-402): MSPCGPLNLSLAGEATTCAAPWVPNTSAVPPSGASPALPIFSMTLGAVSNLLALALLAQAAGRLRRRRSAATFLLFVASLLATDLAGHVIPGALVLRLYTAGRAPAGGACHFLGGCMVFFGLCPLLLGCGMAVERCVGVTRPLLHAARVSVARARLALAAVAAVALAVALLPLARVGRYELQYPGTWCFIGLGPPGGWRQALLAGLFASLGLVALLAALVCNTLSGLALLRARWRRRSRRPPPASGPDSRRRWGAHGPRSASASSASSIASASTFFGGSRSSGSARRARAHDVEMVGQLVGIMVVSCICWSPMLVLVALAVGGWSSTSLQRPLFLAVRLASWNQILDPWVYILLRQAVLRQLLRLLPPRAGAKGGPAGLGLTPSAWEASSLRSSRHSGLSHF
The experiment in a line: FLIPR Ca2+ signaling antagonist assay, EP1 receptor stable cell line. As to conditions: HEK-293 EBNA stable cell line; standard agonist PGE2; NA = inactive (no antagonism or Kb 10,000 nM); PAg, Ag not defined. How it is done: as §1, §2, §3, §4, §5

Assay [4] has as its target T4, human prostanoid EP4 receptor (Homo sapiens, UniProt P35408).
T4 construct: expressed in transfected cells
The experiment in a line: FLIPR Ca2+ signaling antagonist assay, EP4 receptor stable cell line. Particulars: HEK-293 EBNA stable cell line; standard agonist PGE2; NA = inactive (no antagonism or Kb 10,000 nM); PAg, Ag not defined. The method, then:
as §1, §2, §3, §4, §5

Assay [5] addresses T5, human prostanoid TP receptor (Homo sapiens, UniProt P21731).
T5 construct: expressed in transfected cells
T5 sequence (P21731 1-343): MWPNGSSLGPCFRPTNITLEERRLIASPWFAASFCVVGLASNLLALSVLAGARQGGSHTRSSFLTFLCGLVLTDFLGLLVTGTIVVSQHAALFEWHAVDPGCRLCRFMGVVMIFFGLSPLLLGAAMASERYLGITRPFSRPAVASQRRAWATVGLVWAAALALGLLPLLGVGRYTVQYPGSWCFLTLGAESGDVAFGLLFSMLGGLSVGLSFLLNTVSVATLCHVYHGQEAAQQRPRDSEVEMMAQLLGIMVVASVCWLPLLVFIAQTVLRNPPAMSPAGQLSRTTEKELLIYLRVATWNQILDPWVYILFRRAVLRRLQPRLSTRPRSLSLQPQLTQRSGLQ
The experiment in a line: FLIPR Ca2+ signaling antagonist assay, TP receptor stable cell line. As to conditions: HEK-293 EBNA stable cell line; standard agonist U-46619; NA = inactive (no antagonism or Kb 10,000 nM); PAg, Ag not defined. The method, then:
as §1, §2, §3, §4, §5

T4 sequence (P35408 whole entry): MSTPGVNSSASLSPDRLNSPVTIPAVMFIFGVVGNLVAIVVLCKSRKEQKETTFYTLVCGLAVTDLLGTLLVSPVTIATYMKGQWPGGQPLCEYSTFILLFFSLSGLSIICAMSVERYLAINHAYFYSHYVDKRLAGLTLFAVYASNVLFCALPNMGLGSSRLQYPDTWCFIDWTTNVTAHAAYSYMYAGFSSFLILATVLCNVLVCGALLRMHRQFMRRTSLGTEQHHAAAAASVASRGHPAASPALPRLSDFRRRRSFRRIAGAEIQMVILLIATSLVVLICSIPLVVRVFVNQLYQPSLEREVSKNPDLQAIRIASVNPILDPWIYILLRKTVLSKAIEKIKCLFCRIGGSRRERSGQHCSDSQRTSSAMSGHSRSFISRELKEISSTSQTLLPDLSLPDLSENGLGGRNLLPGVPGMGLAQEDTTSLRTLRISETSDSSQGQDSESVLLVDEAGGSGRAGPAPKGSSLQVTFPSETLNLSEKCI
T1 sequence (P43088 whole entry): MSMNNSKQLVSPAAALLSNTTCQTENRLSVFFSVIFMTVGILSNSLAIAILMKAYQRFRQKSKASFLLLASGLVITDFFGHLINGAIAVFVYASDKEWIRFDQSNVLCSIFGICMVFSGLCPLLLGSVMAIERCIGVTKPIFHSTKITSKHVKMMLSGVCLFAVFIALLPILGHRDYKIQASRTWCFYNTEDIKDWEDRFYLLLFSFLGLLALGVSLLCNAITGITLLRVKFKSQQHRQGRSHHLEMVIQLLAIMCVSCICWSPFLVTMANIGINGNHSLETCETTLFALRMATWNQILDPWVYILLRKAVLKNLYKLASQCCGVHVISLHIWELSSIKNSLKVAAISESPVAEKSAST

What is called Kb is the equilibrium dissociation constant of an antagonist, usually derived from a functional assay. The low end stands for a more potent antagonist, the high end for a less potent antagonist. `CCC(CC)COc1ccccc1Cn1nc(CC(C)C(=O)O)cc1C` (racemic) [Example 69, 3-{1-[2-(2-ethyl-butoxy)-benzyl]-5-methyl-1H-pyrazol-3-yl}-2-methyl-propionic acid]: the Kb in assay [1] was determined as 2500 nM; in assay [2], 700 nM; in assay [3], 180 nM; in assay [4], 600 nM; in assay [5] it was 300 nM.
Turning to `CCC(C)(CC)COc1ccc(Br)cc1Cn1nc(CCC(=O)O)cc1C` [Example 11, 3-{1-[5-Bromo-2-(2-ethyl-2-methyl-butoxy)-benzyl]-5-methyl-1H-pyrazol-3-yl}-propionic acid], the antagonist equilibrium constant (Kb) turned out to be 110 nM in assay [1]; 380 nM in assay [2]; 36 nM in assay [3]; 430 nM in assay [4]; 25 nM in assay [5].
Regarding `Cc1cc(CCC(=O)O)nn1Cc1cc(Br)ccc1OCC1(C(F)(F)F)CCCC1` [Example 14, 3-[1-(5-Bromo-2-(1-trifluoromethylcyclopentylmethoxy)-benzyl)-5-methyl-1H-pyrazol-3-yl]-propionic acid], the Kb in assay [1] was 1000 nM; in assay [2], 400 nM; in assay [3] it was 180 nM; in assay [4] it was 1900 nM; in assay [5], 160 nM.
For `Cc1cc(CCC(=O)NS(=O)(=O)c2ccccc2)nn1Cc1cc(Cl)ccc1OCc1ccc(Cl)cc1Cl` [Example 28, N-(3-[1-(5-Chloro-2-(2,4-dichlorobenzyloxy)benzyl)-5-methyl-1H-pyrazol-3-yl]-propionyl)benzenesulfonamide], the Kb in assay [3] was determined as 230 nM; in assay [5] it was 540 nM.
Consider `Cc1cc(CCC(=O)O)nn1Cc1cc(Cl)ccc1OCC1CCCO1` (stereo not drawn) [Example 33, 3-[1-(5-Chloro-2-(tetrahydrofuran-2-yl-methoxy)benzyl)-5-methyl-1H-pyrazol-3-yl]-propionic acid], for which the Kb in assay [1] was found to be 4000 nM; in assay [3], 800 nM; in assay [5] it was 1000 nM.
Consider `Cc1cc(CCC(=O)O)nn1Cc1cc(Cl)ccc1OCC1(C(F)(F)F)CCCC1` [Example 37, 3-[1-(5-Chloro-2-(1-trifluoromethylcyclopentylmethoxy)benzyl)-5-methyl-1H-pyrazol-3-yl]-propionic acid], for which the Kb in assay [1] is 1000 nM; in assay [2] it was 400 nM; in assay [3], 180 nM; in assay [4], 1900 nM; in assay [5] it was 160 nM.
For `Cc1cc(CCC(=O)NS(=O)(=O)C(F)(F)F)nn1Cc1cc(Cl)ccc1OCC(C)C` [Example 44, N-(3-[1-(5-Chloro-2-(2-methylpropyloxy)benzyl)-5-methyl-1H-pyrazol-3-yl]-propionyl)C,C,C-trifluoromethanesulfon amide], the Kb in assay [1] was determined as 500 nM; in assay [2] it was 800 nM; in assay [3], 14 nM; in assay [4], 500 nM; in assay [5] it was 5 nM.
In the case of `CCC(CC)COc1ccc(F)cc1Cn1nc(CCC(=O)O)cc1C` [Example 47, 3-[1-[2-(2-Ethyl-butoxy)-5-fluoro-benzyl]-5-methyl-1H-pyrazol-3-yl]-propionic acid], the Kb in assay [1] came out at 2300 nM; in assay [2], 240 nM; in assay [3], 370 nM; in assay [4], 400 nM; in assay [5], 100 nM.
Consider `CCC(CC)COc1ccc(C(N)=O)cc1Cn1nc(CCC(=O)O)cc1C` [Example 61, 3-{1-[5-Carbamoyl-2-(2-ethyl-butoxy)-benzyl]-5-methyl-1H-pyrazol-3-yl}-propionic acid], for which the Kb in assay [4] is 800 nM; in assay [5] it was 1100 nM.
Take `CCC(CC)COc1ccc(C(=O)O)cc1Cn1nc(CCC(=O)O)cc1C` [Example 62, 3-{1-[5-Carboxy-2-(2-ethyl-butoxy)-benzyl]-5-methyl-1H-pyrazol-3-yl}-propionic acid]: the Kb in assay [3] was 2000 nM; in assay [5] it was 3700 nM.
